In this test the test system is Hedgehog protein signaling pathway. As to the kind of experiment: Inhibition of SAG-induced alkaline phosphatase activity (differentiation) in C3H10T1/2 cells. In kind it is cell-based. Particulars: Mus musculus; for inhibition at 10 µM: C3H 10T1/2, 10 μM test compound, percentage of alkaline phosphatase activity induced by SAG; for IC50: C3H 10T1/2, after induction by 0.1 μM SAG. The procedure:
The effect of compounds with formula (I) as claimed in the invention on inhibition of the Hedgehog protein signaling pathway was determined by analysis of differentiation in the pluripotent fibroblast cell line C3H10T1/2 after activation of this pathway in these cells using a synthetic activator: SAG.
The compounds with formula (I) to be tested were dissolved in dimethylsulfoxide to a concentration of 10 mM, then stored at a temperature of −20° C. until use.
The pluripotent fibroblast cell line C3H10T1/2 (ATCC) was cultivated under the conditions recommended by the ATCC. These cells were activated using 0.1 μM of SAG, employing the methods described by Chen et al., Proc. Natl. Acad. Sci. USA, 2002, 99, 14071 and Frank-Kamenetsky et al., J. Biol., 2002, 1, 10.
Activation with SAG provokes differentiation of the cell line and allows them to express alkaline phosphatase. It is then possible to measure the activity of the Hedgehog protein signaling pathway by measuring the alkaline phosphatase activity.
The C3H10T1/2 cells were plated onto 96-well plates at a density of […], 24 hours before addition of the test compounds in a concentration of 1 nM to 30 μM and in the presence of 0.1 μM of SAG using DMEM supplemented with 10% fetal calf serum as the culture medium. The tests were carried out in quadruplicate. The plates were then incubated for 5-6 days at a temperature of 37° C. in an atmosphere of 5% CO2. The cells were washed in a cold phosphate buffer (“Phosphate Buffer Serum”: PBS) then lysed by sonication at 4° C. in 50 μl of a solution containing 0.9% of NaCl and 0.2% of Triton X-100.
By way of comparison, the activity of a known inhibitor of the Hedgehog protein signaling pathway, CURIS 61 414, as described, for example, by Frank-Kamenetsky M. et al. (J. Biol., 2002, 1, 10), was tested under the same conditions as those used to test the various compounds with formula (I) as claimed in the invention.
The alkaline phosphatase activity measurement in the lysates obtained was then carried out using the method described by Pepinsky et al. (J. Biol. Chem., 1998, 273, 14037). After adding 100 μl of reaction buffer (200 mM Tris-HCl; pH 10.5; 0.4 M of 2-amino-2-methylpropanol and 8 mM of MgCl2) and 50 μl of substrate (4 mM of disodium p-nitrophenyl phosphate), the lysates were incubated at 37° C. for 30-60 min, then the optical density was read at a wavelength of 415 nm.

What is called inhibition is the percentage by which the read-out fell short of the control. High values mean a response far below the control, low ones a response near the control. As a reminder, the IC50 is the midpoint of a concentration-inhibition curve.

Bounds are passed on as bounds.

Turning to `COc1cc(C(=O)NC(=S)Nc2cccc(NC(=O)c3ccccc3Cl)c2)cc(OC)c1OC` [Compound 2, N-[[[3-(2-chloro-benzoylamino)phenyl]amino]thioxomethyl]-3,4,5-methoxy-benzamide], the inhibition at 10 µM was greater than 80% and the IC50 was in the range of 1 to 3 µM. Compound `COc1cccc(C(=O)Nc2cccc(NC(=S)NC(=O)c3cc(OC)c(OC)c(OC)c3)c2)c1` [Compound 3, N-[[[3-(3-methoxy-benzoylamino)phenyl]amino]thioxomethyl]-3,4,5-methoxy-benzamide] registered an inhibition at 10 µM greater than 80% and a 50% inhibitory concentration (IC50) of 1 to 3 µM. In the same order, the values of `COc1ccccc1C(=O)Nc1cccc(NC(=S)NC(=O)c2cc(OC)c(OC)c(OC)c2)c1` [Compound 4, N-[[[3-(2-methoxy-benzoylamino)phenyl]amino]thioxomethyl]-3,4,5-methoxy-benzamide] are greater than 80% and 1 to 3 µM. The matching figures for `COc1cc(C(=O)NC(=S)Nc2cccc(NC(=O)c3ccc(-c4ccccc4)cc3)c2)cc(OC)c1OC` [Compound 5, N-[[[3-(4-phenyl-benzoylamino)phenyl]amino]thioxomethyl]-3,4,5-methoxy-benzamide]: 20 to 80% and 0.01 to 1 µM. In turn, `COc1cc(C(=O)NC(=O)Nc2cccc(NC(=O)c3ccc(-c4ccccc4)cc3)c2)cc(OC)c1OC` [Compound 7, N-[[[3-(4-phenyl-benzoylamino)phenyl]amino]oxomethyl]-3,4,5-methoxy-benzamide] returned an inhibition at 10 µM of 20 to 80%.

Regarding `COc1cc(C(=O)NC(=S)Nc2cccc(NC(=O)C3CCCCC3)c2)cc(OC)c1OC` [Compound 8, N-[[[3-(-cyclohexylcarboxylamino)phenyl]amino]thioxomethyl]-3,4,5-methoxy-benzamide], the inhibition at 10 µM was 20 to 80%. `COc1cc(C(=O)NC(=S)Nc2cccc(NC(=O)c3ccc4ccccc4c3)c2)cc(OC)c1OC` [Compound 9, N-[[[3-(2-naphthoylamino)phenyl]amino]thioxomethyl]-3,4,5-methoxy-benzamide] yielded an inhibition at 10 µM of 20 to 80%.

Regarding `COc1cc(C(=O)NC(=S)Nc2cccc(NC(=O)C(C)C)c2)cc(OC)c1OC` [Compound 10, N-[[[3-(isopropoylcarboxylamino)phenyl]amino]thioxomethyl]-3,4,5-methoxy-benzamide], the inhibition at 10 µM lay in the range of 5 to 20%. Compound `COc1cc(C(=O)NC(=S)Nc2cccc(NC(=O)c3ccncc3)c2)cc(OC)c1OC` [Compound 11, N-[[[3-(4-pyridocarboxylamino)phenyl]amino]thioxomethyl]-3,4,5-methoxy-benzamide] displayed an inhibition at 10 µM greater than 80%.

In turn, `COc1cc(C(=O)NC(=S)Nc2cccc(NC(=O)c3cccc4ccccc34)c2)cc(OC)c1OC` [Compound 12, N-[[[3-(1-naphthoylamino)phenyl]amino]thioxomethyl]-3,4,5-methoxy-benzamide] showed an inhibition at 10 µM of 20 to 80%.

Regarding `COc1cc(C(=O)NC(=S)Nc2cccc(NC(=O)c3ccc(Cl)cc3)c2)cc(OC)c1OC` [Compound 13, N-[[[3-(4-chloro-benzoylamino)phenyl]amino]thioxomethyl]-3,4,5-methoxy-benzamide], the inhibition at 10 µM was greater than 80% and the IC50 was in the range of 0.01 to 1 µM. The compound `COc1cc(C(=O)NC(=S)Nc2cccc(NC(=O)c3ccco3)c2)cc(OC)c1OC` [Compound 14, N-[[[3-(2-furoylamino)phenyl]amino]thioxomethyl]-3,4,5-methoxy-benzamide] returned an inhibition at 10 µM of 20 to 80%.

`COc1cc(C(=O)NC(=S)Nc2cccc(NC(=O)c3cccs3)c2)cc(OC)c1OC` [Compound 15, N-[[[3-(2-thiophenoylamino)phenyl]amino]thioxomethyl]-3,4,5-methoxy-benzamide] showed an inhibition at 10 µM of 20 to 80%. With `COc1cc(C(=O)NC(=O)Nc2cccc(NC(=O)c3ccc4ccccc4c3)c2)cc(OC)c1OC` [Compound 16, N-[[[3-(2-naphthoylamino)phenyl]amino]oxomethyl]-3,4,5-methoxy-benzamide], the inhibition at 10 µM fell in the range of 5 to 20%.

`COc1cc(C(=O)NC(=O)Nc2cccc(NC(=O)C(C)C)c2)cc(OC)c1OC` [Compound 17] yielded an inhibition at 10 µM greater than 80%. `COc1cc(OC)cc(C(=O)NC(=S)Nc2cccc(NC(=O)c3ccccc3)c2)c1` [Compound 18, N-[[[3-(benzoylamino)phenyl]amino]thioxomethyl]-3,5-methoxy-benzamide] gave an inhibition at 10 µM greater than 80% and an IC50 of 1 to 3 µM. Take `CCOc1c(OC)cc(C(=O)NC(=S)Nc2cccc(NC(=O)c3ccccc3)c2)cc1OC` [Compound 19, N-[[[3-(benzoylamino)phenyl]amino]thioxomethyl]-3,5-methoxy-4-ethoxy-benzamide]: the inhibition at 10 µM is greater than 80% and the 50% inhibitory concentration (IC50) fell in the range of 0.01 to 1 µM. The compound `CCOc1cc(C(=O)NC(=S)Nc2cccc(NC(=O)c3ccccc3)c2)cc(OC)c1OCC` [Compound 20, N-[[[3-(benzoylamino)phenyl]amino]thioxomethyl]-3,4-ethoxy-5-methoxy-benzamide] returned an inhibition at 10 µM greater than 80% and an IC50 of 0.01 to 1 µM. `COc1cc(C(=O)NC(=S)Nc2cccc(NC(=O)c3ccccc3)c2)cc2c1OCO2` [Compound 21, N-[[[3-(benzoylamino)phenyl]amino]thioxomethyl]-3,4-methylenedioxy-5-methoxy-benzamide] showed an inhibition at 10 µM greater than 80% and an IC50 of 1 to 3 µM. For the compound `COc1ccc(C(=O)NC(=S)Nc2cccc(NC(=O)c3ccccc3)c2)c(OC)c1` [Compound 22, N-[[[3-(benzoylamino)phenyl]amino]thioxomethyl]-2,4-methoxy-benzamide], the inhibition at 10 µM was in the range of 20 to 80% and the IC50 was in the range of 1 to 3 µM. In turn, `CCOc1cc(C(=O)NC(=S)Nc2cccc(NC(=O)c3ccccc3)c2)cc(OCC)c1OCC` [Compound 23, N-[[[3-(benzoylamino)phenyl]amino]thioxomethyl]-3,4,5-ethoxy-benzamide] yielded an inhibition at 10 µM greater than 80% and a half-inhibitory concentration (IC50) of 0.01 to 1 µM.

In turn, `COc1cc(C(=O)NC(=S)Nc2ccc(F)c(NC(=O)c3ccccc3)c2)cc(OC)c1OC` [Compound 24, N-[[[4-fluoro-3-(benzoylamino)phenyl]amino]thioxomethyl]-3,4,5-methoxy-benzamide] gave an inhibition at 10 µM greater than 80%. Still for that read-out and setting: under `COc1cc(C(=O)NC(=S)Nc2ccc(Cl)c(C(=O)Nc3ccccc3)c2)cc(OC)c1OC` [Compound 25, N-[[[4-chloro-3-(phenylamino)carbonyl]amino]thioxomethyl]-3,4,5-methoxy-benzamide] stands greater than 80%. On to `COc1ccc(NC(=S)NC(=O)c2cc(OC)c(OC)c(OC)c2)cc1NC(=O)c1ccccc1` [Compound 26, N-[[[4-methoxy-3-(benzoylamino)phenyl]amino]thioxomethyl]-3,4,5-methoxy-benzamide], for which the inhibition at 10 µM was in the range of 20 to 80%. `COc1cc(C(=O)NC(=S)Nc2ccc(C)c(NC(=O)c3ccccc3)c2)cc(OC)c1OC` [Compound 27, N-[[[4-methyl-3-(benzoylamino)phenyl]amino]thioxomethyl]-3,4,5-Methoxy-benzamide]: the inhibition at 10 µM lay in the range of 20 to 80%. In turn, `O=C(NC(=S)Nc1cccc(NC(=O)c2ccccc2)c1)c1ccc2c(c1)OCCO2` [Compound 28, N-[[[3-(benzoylamino)phenyl]amino]thioxomethyl]-3,4-ethylenedioxo-benzamide] came in with an inhibition at 10 µM of 5 to 20%.

The compound `CCOc1cc(C(=O)NC(=O)Nc2cccc(NC(=O)c3ccccc3)c2)cc(OCC)c1OCC` [Compound 29, N-[[[3-(benzoylamino)phenyl]amino]oxomethyl]-3,4,5-ethoxy-benzamide] came in with an inhibition at 10 µM of 20 to 80%.

On to `COc1cc(C(=O)NC(=O)Nc2cccc(NC(=O)c3ccccc3)c2)cc2c1OCO2` [Compound 30, N-[[[3-(benzoylamino)phenyl]amino]oxomethyl]-3,4-methylenedioxy-5-methoxy-benzamide], for which the inhibition at 10 µM fell in the range of 5 to 20%. Same read-out and setting: under `COc1cc(C(=O)NC(=O)Nc2ccc(Cl)c(NC(=O)c3ccccc3)c2)cc(OC)c1OC` [Compound 33, N-[[[4-chloro-3-(benzoylamino)phenyl]amino]oxomethyl]-3,4,5-methoxy-benzamide] stands 20 to 80%.

In the case of `COc1cc(C(=O)NC(=S)Nc2ccc(Cl)c(NC(=O)c3ccccc3)c2)cc(OC)c1OC` [Compound 34, N-[[[4-chloro-3-(benzoylamino)phenyl]amino]thioxomethyl]-3,4,5-methoxy-benzamide], the inhibition at 10 µM was greater than 80% and the IC50 was in the range of 0.01 to 1 µM.
